Laboratory results taken from paper PMC6151695, “Novel Selective Estrogen Receptor Ligand Conjugates Incorporating Endoxifen-Combretastatin and Cyclofenil-Combretastatin Hybrid Scaffolds: Synthesis and Biochemical Evaluation” (Molecules : A Journal of Synthetic Chemistry and Natural …, 2017).
Several values for one entry are separate records, joined by “and”; a condition that tells them apart may be missing. Equal values may be shown once.

tested on: MCF-7 human breast cancer cell line; experiment: Alamar Blue assay for antiproliferative effects; format: cell-based; conditions: Homo sapiens, MCF7, 72 h, MCF-7, 72 h, Alamar Blue; read-out: IC50 (μM), antiproliferative effects

`CCC(=C(c1ccc(O)cc1)c1ccc(OCCN(C)C(=O)/C(=C/c2cc(OC)c(OC)c(OC)c2)c2cc(OC)cc(OC)c2)cc1)c1ccccc1` (mixture of isomers) [Compound 3b, (E/Z)-2-(3,5-Dimethoxyphenyl)-N-(2-(4-((Z)-1-(4-hydroxyphenyl)-2-phenylbut-1-en-1-yl)phenoxy)ethyl)-N-methyl-3-(3,4,5-trimethoxyphenyl)acrylamide] was tested. Which IC50 did it give?
Its IC50 is greater than 50 µM.

`CCC(=C(c1ccc(O)cc1)c1ccc(OCCN(C)C(=O)/C(=C/c2cc(OC)c(OC)c(OC)c2)c2cc(OC)c(OC)c(OC)c2)cc1)c1ccccc1` (mixture of isomers) [Compound 3c, (E/Z)-N-(2-(4-((Z)-1-(4-Hydroxyphenyl)-2-phenylbut-1-en-1-yl)phenoxy)ethyl)-N-methyl-2,3-bis(3,4,5-trimethoxyphenyl)acrylamide] was tested. Which IC50 did it give?
Its IC50 is greater than 50 µM.

With `CCC(=C(c1ccc(O)cc1)c1ccc(OCCN(C)C(=O)/C(=C/c2ccc(OC)c(O)c2)c2cc(OC)cc(OC)c2)cc1)c1ccccc1` (mixture of isomers) [Compound 3d, (E/Z)-2-(3,5-Dimethoxyphenyl)-3-(3-hydroxy-4-methoxyphenyl)-N-(2-(4-((Z)-1-(4-hydroxyphenyl)-2-phenylbut-1-en-1-yl)phenoxy)ethyl)-N-methylacrylamide] as the compound, how does the IC50 read?
Its IC50 is greater than 50 µM.

How did the IC50 turn out when `CCC(=C(c1ccc(O)cc1)c1ccc(OCCN(C)C(=O)/C(=C/c2ccc(O)c(O)c2)c2cc(OC)c(OC)c(OC)c2)cc1)c1ccccc1` (mixture of isomers) [Compound 3e, (E/Z)-3-(3,4-Dihydroxyphenyl)-N-(2-(4-((Z)-1-(4-hydroxyphenyl)-2-phenylbut-1-en-1-yl)phenoxy)ethyl)-N-methyl-2-(3,4,5-trimethoxyphenyl)acrylamide] was run?
The IC50 was greater than 50 µM.

Which IC50 does the source give for `CCC(=C(c1ccc(O)cc1)c1ccc(OCCN(C)C(=O)/C(=C/c2cccc(O)c2)c2cc(OC)c(OC)c(OC)c2)cc1)c1ccccc1` (mixture of isomers) [Compound 3f, (E/Z)-3-(3-Hydroxyphenyl)-N-(2-(4-((Z)-1-(4-hydroxyphenyl)-2-phenylbut-1-en-1-yl)phenoxy)ethyl)-N-methyl-2-(3,4,5-trimethoxyphenyl)acrylamide] here?
The IC50 was greater than 50 µM.

How did the IC50 turn out when `CCC(=C(c1ccc(O)cc1)c1ccc(OCCN(C)C(=O)/C(=C/c2ccc(OC)c(OC)c2)c2cc(OC)c(OC)c(OC)c2)cc1)c1ccccc1` (mixture of isomers) [Compound 3g, (E/Z)-3-(3,4-Dimethoxyphenyl)-N-(2-(4-((Z)-1-(4-hydroxyphenyl)-2-phenylbut-1-en-1-yl)phenoxy)ethyl)-N-methyl-2-(3,4,5-trimethoxyphenyl)acrylamide] was run?
The IC50 was greater than 50 µM.

`CCC(=C(c1ccc(O)cc1)c1ccc(OCCN(C)C(=O)/C(=C/c2ccc(OC)c(OC)c2OC)c2cc(OC)c(OC)c(OC)c2)cc1)c1ccccc1` (mixture of isomers) [Compound 3h, (E/Z)-N-(2-(4-((Z)-1-(4-Hydroxyphenyl)-2-phenylbut-1-en-1-yl)phenoxy)ethyl)-N-methyl-3-(2,3,4-tri-methoxyphenyl)-2-(3,4,5-trimethoxyphenyl)acrylamide] was tested. Which IC50 did it give?
The IC50 was greater than 50 µM.

For `CCC(=C(c1ccc(O)cc1)c1ccc(OCCN(C)C(=O)/C(=C/c2cc(OC)c(O)c(OC)c2)c2cc(OC)c(OC)c(OC)c2)cc1)c1ccccc1` (mixture of isomers) [Compound 3j, (E/Z)-3-(4-Hydroxy-3,5-dimethoxyphenyl)-N-(2-(4-((Z)-1-(4-hydroxyphenyl)-2-phenylbut-1-en-1-yl)-phenoxy)ethyl)-N-methyl-2-(3,4,5-trimethoxyphenyl)acrylamide], which IC50 is on record?
The IC50 was 11.8 µM.

How did the IC50 turn out when `CCC(=C(c1ccc(O)cc1)c1ccc(OCCN(C)C(=O)/C(=C/c2ccc(C)s2)c2cc(OC)c(OC)c(OC)c2)cc1)c1ccccc1` (mixture of isomers) [Compound 3l, (E/Z)-N-(2-(4-((E)-1-(4-Hydroxyphenyl)-2-phenylbut-1-en-1-yl)phenoxy)ethyl)-N-methyl-3-(5-methyl-thiophen-2-yl)-2-(3,4,5-trimethoxyphenyl)acrylamide] was run?
The IC50 was greater than 50 µM.

Which IC50 does the source give for `CCC(=C(c1ccc(O)cc1)c1ccc(OCCN(C)C(=O)/C=C/c2cc(OC)c(OC)c(OC)c2)cc1)c1ccccc1` (mixture of isomers) [Compound 5c, (E/Z)-N-(2-(4-((Z)-1-(4-Hydroxyphenyl)-2-phenylbut-1-en-1-yl)phenoxy)ethyl)-N-methyl-3-(3,4,5-tri-methoxyphenyl)acrylamide] here?
The IC50 was greater than 100 µM.

With `CCC(=C(c1ccc(O)cc1)c1ccc(OCCN(C)C(=O)CCc2cc(OC)c(OC)c(OC)c2)cc1)c1ccccc1` (mixture of isomers) [Compound 5d, N-(2-(4-((E/Z)-1-(4-Hydroxyphenyl)-2-phenylbut-1-enyl)phenoxy)ethyl)-3-(3,4,5-trimethoxyphenyl)-N-methylpropanamide] as the compound, how does the IC50 read?
Its IC50 is greater than 100 µM.

Which IC50 does the source give for `CNCCOc1ccc(C(=C2CCCC2)c2ccc(O)cc2)cc1` [Compound 11a, 4-(Cyclopentylidene(4-(2-(methylamino)ethoxy)phenyl)methyl)phenol] here?
The IC50 was 3.09 µM.

`CNCCOc1ccc(C(=C2CCCCC2)c2ccc(O)cc2)cc1` [Compound 11b, 4-(Cyclohexaneylidene(4-(2-(methylamino)ethoxy)phenyl)methyl)phenol] was tested. Which IC50 did it give?
The IC50 was 4.78 µM.

same assay, conditions: Homo sapiens, MCF7, 72 h, read-out: IC50 (μM), antiproliferative effects

For `CCC(=C(c1ccc(O)cc1)c1ccc(OCCN(C)C(=O)/C(=C/c2ccc(OC)c([N+](=O)[O-])c2)c2cc(OC)c(OC)c(OC)c2)cc1)c1ccccc1` (mixture of isomers) [Compound 3a, (E/Z)-N-(2-(4-((E)-1-(4-Hydroxyphenyl)-2-phenylbut-1-en-1-yl)phenoxy)ethyl)-3-(4-methoxy-3-nitro-phenyl)-N-methyl-2-(3,4,5-trimethoxyphenyl)acrylamide], which IC50 is on record?
Its IC50 is greater than 50 µM.

same assay, conditions: Homo sapiens, MCF7, read-out: growth inhibition

Which inhibition at 1 µM does the source give for `COc1ccc(/C(=C\c2cc(OC)c(OC)c(OC)c2)C(N)=O)cc1` [Compound 3n, (E)-2-(4-Methoxyphenyl)-3-(3,4,5-trimethoxyphenyl)acrylamide] here?
The inhibition at 1 µM was 20%.

`CCN(CC)C(=O)/C(=C/c1ccc(OC)c(O)c1)c1cc(OC)c(OC)c(OC)c1` [Compound 3o, (E)-N,N-diethyl-3-(3-hydroxy-4-methoxyphenyl)-2-(3,4,5-trimethoxyphenyl) acrylamide] was tested. Which inhibition at 1 µM did it give?
The inhibition at 1 µM was 16%.

same assay, conditions: Homo sapiens, MCF7; MCF-7, at 1 μM; read-out: growth inhibition

For `COc1ccc(/C=C(/C(N)=O)c2cc(OC)c(OC)c(OC)c2)cc1` [Compound 3p, (E)-3-(4-Methoxyphenyl)-2-(3,4,5-trimethoxyphenyl)acrylamide], which inhibition at 1 µM is on record?
Its inhibition at 1 µM is 60%.

`CCN(CC)C(=O)/C(=C/c1ccc(OC)cc1)c1cc(OC)c(OC)c(OC)c1` [Compound 3q, (E)-N,N-Diethyl-3-(4-methoxyphenyl)-2-(3,4,5-trimethoxyphenyl)acrylamide] was tested. Which inhibition at 1 µM did it give?
Its inhibition at 1 µM is 25%.

same assay, conditions: MCF-7, 72 h, Alamar Blue; read-out: IC50 (μM), antiproliferative effects

How did the IC50 turn out when `CCC(=C(c1ccc(O)cc1)c1ccc(OCCN(C)C(=O)/C(=C/c2cc(OC)c(O)c(OC)c2)c2cc(OC)c(OC)c(OC)c2)cc1)c1ccccc1` (mixture of isomers) [Compound 3j, (E/Z)-3-(4-Hydroxy-3,5-dimethoxyphenyl)-N-(2-(4-((Z)-1-(4-hydroxyphenyl)-2-phenylbut-1-en-1-yl)-phenoxy)ethyl)-N-methyl-2-(3,4,5-trimethoxyphenyl)acrylamide] was run?
Its IC50 is 11.8 µM.

With `CC/C(=C(\c1ccc(O)cc1)c1ccc(OCCN(C)C(=O)C=Cc2ccc(OC)c(O)c2)cc1)c1ccccc1` (mixture of isomers) [Compound 5a, (E/Z)-3-(3-Hydroxy-4-methoxyphenyl)-N-(2-(4-((Z)-1-(4-hydroxyphenyl)-2-phenylbut-1-en-1-yl)phenoxy)-ethyl)-N-methylacrylamide] as the compound, how does the IC50 read?
The IC50 was 51.3 µM.

How did the IC50 turn out when `CCC(=C(c1ccc(O)cc1)c1ccc(OCCN(C)C(=O)CCc2ccc(OC)c(O)c2)cc1)c1ccccc1` (mixture of isomers) [Compound 5b, (E/Z)-3-(3-hydroxy-4-methoxyphenyl)-N-(2-(4-(1-(4-hydroxyphenyl)-2-phenylbut-1-en-1-yl)phenoxy)ethyl)-N-methylpropanamide] was run?
The IC50 was 46.7 µM and 46.8 µM.

For `CCC(=C(c1ccc(O)cc1)c1ccc(OCCN(C)C(=O)/C=C/c2cc(OC)c(OC)c(OC)c2)cc1)c1ccccc1` (mixture of isomers) [Compound 5c, (E/Z)-N-(2-(4-((Z)-1-(4-Hydroxyphenyl)-2-phenylbut-1-en-1-yl)phenoxy)ethyl)-N-methyl-3-(3,4,5-tri-methoxyphenyl)acrylamide], which IC50 is on record?
The IC50 was greater than 50 µM.

Which IC50 does the source give for `CCC(=C(c1ccc(O)cc1)c1ccc(OCCN(C)C(=O)CCc2cc(OC)c(OC)c(OC)c2)cc1)c1ccccc1` (mixture of isomers) [Compound 5d, N-(2-(4-((E/Z)-1-(4-Hydroxyphenyl)-2-phenylbut-1-enyl)phenoxy)ethyl)-3-(3,4,5-trimethoxyphenyl)-N-methylpropanamide] here?
The IC50 was greater than 50 µM.
